Assay results from patent US20050106558A1, “Library of modified structural genes or capsid modified particles useful for the identification of viral clones with desired cell tropism” (priority 2001, published 2005).

Legend:
M-07e cells = assay: Transduction efficiency of rAAV-GFP clones on M-07e cells (FACS), with or without competitors; type: cell-based, human
Protocol: Cells were seeded in 96 or 24 well plates (Nunc, Wiesbaden, Germany) and infected with rAAV-GFP clones, harvested 48 hrs p.i., washed and resuspended in 1 ml PBS. The percentage of GFP expressing cells was determined by flow cytometry with a Coulter Epics XL-MCL (Beckman Coulter, Krefeld, Germany). A minimum of 5000 cells were analyzed for each sample. Infectivity of the retargeted mutants was determined in the presence or absence of various concentrations of GRGDTP or GRGES peptides (Bachem, Bubendorf, Swiss) or 5 I.U./[II soluble heparin (Braun, Melsungen, Germany).
The selected capsid mutants were tested for their ability to transduce M-07e cells (FIG. 5a). At a genomic particle/cell ratio of 2×10^4, the mutants rAAV-M07A and rAAV-M07T transduced 50±2.5% and 47±2.7% of M-07e cells, respectively, representing a 100 and 94 fold increase in comparison to rAAV-wt transduction efficiency (0.5±0.01%). In contrast, rAAV-MecA and rAAV-MecB transduced M-07e cells with an efficiency of only 8.1±1.5% and 16±2%. The vector rAAV-L14, carrying an RGD motif inserted at position 587 (Girod A et al (1999) supra), was also compared. […] This highlighted the advantage of the combinatorial approach when compared with the simple insertion of an exogenous sequence.
We then examined whether the transduction of M-07e cells by rAAV-M07A and rAAV-M07T vectors was specifically mediated by the amino acids inserted at position 587. In the capsid of wt AAV, the region around position 587 is involved in the binding to heparan sulfate proteoglycan (HSPG) (Nicklin S A et al. (2001) Mol. Ther. 4, 174-81; Wu P. et al. (2000) J. Virol. 74, 8635-47), the primary receptor of AAV-2 (Summerford C and Samulski J (1998) J. Virol. 72, 1438-45). Pre-incubation with soluble heparin, an HSPG analogue and competitor, inhibited transduction of M-07e cells by rAAV-MecB but not by rAAV-M07A, rAAV-M07T and rAAV-MecA (FIG. 5a). […] This effect was concentration-dependent (FIG. 5b). […]

[1] = target: integrin receptor expressed on the surface of the target cells; assay: cell-based or functional assay

## RGES
M-07e cells; M07e cells
  effect of RGES peptide pre-incubation on infection: failed to inhibit

## RGDS
M-07e cells; M07e cells incubated with 100 uM peptide prior to infection
  reduction of transduction efficiencies by competing RGDS peptide: more than 50%

## GRGES
M-07e cells; M-07e cells, 450 μM
  effect of inactive GRGES peptide on transduction: no effect

## rAAV-M07T (RGDTPTS insertion) (from UniProt P03135 1-587; P03135 588-735)
[1]
  reduction of M07e cell transduction after incubation of the cells with 100 uM RGDS peptide: > 50%

## rAAV-M07A (RGDAVGV insertion) (from UniProt P03135 1-587; P03135 588-735)
[1]
  reduction of M07e cell transduction after incubation of the cells with 100 uM RGDS peptide: > 50%
